Measurements reported in patent US9049866B2, “Synergistic herbicidal combination of clomazone and pethoxamid” (CHEMINOVA A/S, priority 2008, dated 2015).

Columns and labels:
Type in all cases: in vivo
Galium aparine = experiment: Oilseed rape field test, control of Galium aparine (Example 4); conditions: spraying, clomazone 72, pethoxamid 1200, combination 72 + 1200 g AI/hectare, 64 days after application
From the text: (§1) In the Colby method, also referred to as the Limpels method, the action to be expected E for a given active ingredient combination obeys the so-called Colby formula. According to Colby, the expected action of active ingredients A+B using p+q ppm of active ingredient is:
(§2) [formula] where ppm=milligrams of active ingredient (=a.i.) per liter of spray mixture X=% action by component A using p ppm of active ingredient Y=% action by component B using q ppm of active ingredient. If the ratio R defined as the action actually observed (O) divided by the expected action (E) is >1 then the action of the combination is superadditive, i.e. there is a synergistic effect. […]
(§3) The herbicidal compounds A and B were applied in the formulation in which they are present as commercially available product. Damage by the herbicidal compositions was evaluated with reference to a scale of 0% to 100% in comparison with untreated control plots. […]
In an oilseed rape field, Clomazone, and pethoxamid were applied individually and in combination to different plots by spraying. 64 days after application the rate of control of Galium aparine was recorded. The expected control is calculated according to the Colby method.

Viola arvensis = experiment: Oilseed rape field test, control of Viola arvensis (Example 3); conditions: spraying, clomazone 72, pethoxamid 1200, combination 72 + 1200 g AI/hectare, 206 days after application
From the text: as §1, §2, §3
In an oilseed rape field, Clomazone, and pethoxamid were applied individually and in combination to different plots by spraying. 206 days after application the rate of control of Viola arvensis was recorded. The expected control is calculated according to the Colby method.

Ambrosia artemisiifolia = experiment: Field test in sunflowers, control of Ambrosia artemisiifolia (Example 2); conditions: sunflower field, spraying, clomazone 90 g/ha, pethoxamid 1200 g/ha, combination 90+1200 g/ha, 50 days after application
From the text: as §1, §2, §3
(§4) In a field of sunflowers, clomazone (rate of 90 g/ha) and pethoxamid (rate of 1200 g/ha) were applied individually and in combination (90+1200 g/ha) to different plots by spraying. 50 days after application the rate of control of various weeds was recorded. The expected control is calculated according to the Colby method.

Mercurialis annua = experiment: Field test in sunflowers, control of Mercurialis annua (Example 2); conditions: sunflower field, spraying, clomazone 90 g/ha, pethoxamid 1200 g/ha, combination 90+1200 g/ha, 50 days after application
From the text: as §1, §2, §3, §4

Solanum nigrum = experiment: Field test in sunflowers, control of Solanum nigrum (Example 1); conditions: sunflower field, spraying, clomazone 90 g/ha, pethoxamid 1200 g/ha, combination 90+1200 g/ha, 55 days after application
From the text: as §1, §2, §3
(§5) In a field of sunflowers, clomazone (rate of 90 g/ha) and pethoxamid (rate of 1200 g/ha) were applied individually and in combination (90+1200 g/ha) to different plots by spraying. 55 days after application the rate of control of various weeds was recorded. The expected control is calculated according to the Colby method.

Echinochloa crus-galli = experiment: Field test in sunflowers, control of Echinochloa crus-galli (Example 1); conditions: sunflower field, spraying, clomazone 90 g/ha, pethoxamid 1200 g/ha, combination 90+1200 g/ha, 55 days after application, 0 = no damage, 100 = complete destruction
From the text: as §1, §2, §3, §5

Structure (SMILES) | Control observed (O) % (Galium aparine) | Control observed (O) % (Viola arvensis) | Control observed (O) % (Ambrosia artemisiifolia) | Control observed (O) % (Mercurialis annua) | Control observed (O) % (Solanum nigrum) | Control observed (O) % (Echinochloa crus-galli)
CC1(C)CON(Cc2ccccc2Cl)C1=O [Clomazone, clomazone] | 40% | 0% | 10% | 13% | 37% | 50%
CCOCCN(C(=O)CCl)C(=C(C)C)c1ccccc1 [Pethoxamid, pethoxamid] | 0% | 50% | 10% | 27% | 47% | 47%
